Values after ≈ are worked out from the molar mass of the structure shown.
Key:
TesA [1] = target: T1, TesA (Escherichia coli, UniProt P0ADA1); experiment: ester hydrolysis by live cells expressing TesA, absorbance at […] nm; type: cell-based; parameters: for the cell assays expressed from a pET vector in E. coli delta-tesA (Keio) cells; conditions: PBS; live E. coli delta-tesA cells; 2.5 mM substrate after mixing
T1 sequence (P0ADA1 27-208): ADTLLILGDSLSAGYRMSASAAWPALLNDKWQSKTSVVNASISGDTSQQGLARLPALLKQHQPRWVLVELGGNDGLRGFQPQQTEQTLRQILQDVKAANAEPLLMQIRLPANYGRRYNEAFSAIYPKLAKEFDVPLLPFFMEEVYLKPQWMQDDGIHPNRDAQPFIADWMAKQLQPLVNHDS

[2] = system: T2, Escherichia coli C43(DE3); experiment: microbe, parasite or virus in culture; parameters: antibiotic susceptibility testing of E. coli strains, MIC, median of replicates; conditions: D=+IPTG +Kan, median MIC, empty pET28, IPTG and kanamycin present
T2 construct: C43(DE3) carrying empty pET28 vector
Excerpt: (§1) Supplementary file pbio.3003427.s003.docx: S3 Table Antibiotic susceptibility testing for TesA and YbbP knockout strains. (DOCX)

Escherichia coli BW25113 = system: T3, Escherichia coli BW25113; experiment: microbe, parasite or virus in culture; parameters: antibiotic susceptibility testing of E. coli strains, MIC, median of replicates; conditions: read-out: Median MIC
T3 construct: BW25113
Excerpt: as §1

TesA [3] = target: T1, TesA; experiment: absorbance assay; type: biochemical; parameters: isolated TesA; for the cell assays expressed from a pET vector in E. coli delta-tesA (Keio) cells; conditions: isolated TesA
PaTesA = target: T4, PaTesA (Pseudomonas aeruginosa, UniProt Q9HZY8); experiment: absorbance at […] nm; type: biochemical; conditions: purified tagged enzyme
T4 construct: gene tesA; purified, N-terminal tag

YbbAP-TesA = target: T5, YbbAP-TesA (Escherichia coli, UniProt P0ADA1); experiment: Michaelis-Menten, absorbance at […] nm; type: biochemical; conditions: PBS with 0.01% LMNG, 21 °C
T5 construct: co-expressed from pETDuet1-based plasmids in E. coli C43(DE3); His-tag on YbbA; complex in LMNG detergent; 2:1:1 YbbA:YbbP:TesA; Uncharacterized ABC transporter permease YbbP
T5 sequence (P0ADA1 27-208): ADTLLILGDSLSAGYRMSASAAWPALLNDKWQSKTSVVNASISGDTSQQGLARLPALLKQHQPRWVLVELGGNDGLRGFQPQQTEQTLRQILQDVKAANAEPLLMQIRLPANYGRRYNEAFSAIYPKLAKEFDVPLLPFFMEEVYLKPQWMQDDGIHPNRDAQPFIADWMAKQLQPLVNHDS
T5 sequence (P0A9T8 1-228 partner): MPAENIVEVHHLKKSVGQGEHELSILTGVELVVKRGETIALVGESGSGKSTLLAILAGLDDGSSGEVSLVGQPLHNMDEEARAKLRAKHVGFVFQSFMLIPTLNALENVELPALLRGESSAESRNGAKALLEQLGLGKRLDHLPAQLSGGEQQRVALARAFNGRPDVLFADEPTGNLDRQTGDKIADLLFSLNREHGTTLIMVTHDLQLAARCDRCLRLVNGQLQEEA
T5 sequence (P77504 1-804 partner): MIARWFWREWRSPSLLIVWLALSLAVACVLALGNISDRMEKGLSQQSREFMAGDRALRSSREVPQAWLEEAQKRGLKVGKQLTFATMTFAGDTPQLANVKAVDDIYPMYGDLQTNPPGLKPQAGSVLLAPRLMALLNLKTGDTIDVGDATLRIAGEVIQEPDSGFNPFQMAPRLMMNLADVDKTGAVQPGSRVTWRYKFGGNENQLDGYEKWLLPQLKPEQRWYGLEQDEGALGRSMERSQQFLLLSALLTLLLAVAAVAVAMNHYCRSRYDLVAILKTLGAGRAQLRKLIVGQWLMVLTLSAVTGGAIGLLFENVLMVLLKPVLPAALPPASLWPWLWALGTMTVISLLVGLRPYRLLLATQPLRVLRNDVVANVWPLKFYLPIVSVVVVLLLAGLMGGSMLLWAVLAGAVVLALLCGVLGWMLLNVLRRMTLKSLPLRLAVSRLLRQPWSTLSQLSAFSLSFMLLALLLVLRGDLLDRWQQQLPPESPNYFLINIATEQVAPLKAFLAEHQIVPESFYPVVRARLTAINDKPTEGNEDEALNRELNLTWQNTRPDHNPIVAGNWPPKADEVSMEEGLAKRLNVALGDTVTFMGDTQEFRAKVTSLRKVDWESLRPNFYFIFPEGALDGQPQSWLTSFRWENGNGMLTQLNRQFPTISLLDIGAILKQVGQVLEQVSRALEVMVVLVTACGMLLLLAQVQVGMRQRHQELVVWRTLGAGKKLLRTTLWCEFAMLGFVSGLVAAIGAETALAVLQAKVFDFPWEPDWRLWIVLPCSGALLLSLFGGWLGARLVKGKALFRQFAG

YbbP = target: T6, YbbP (E. coli, UniProt P77504 1-804); experiment: cryo-EM structure; YbbAP-TesA(Ser36Ala) complex with AMP-PNP, co-expressed and co-purified (Ni-affinity, SEC), 0.01% LMNG; 4.6 Å; conditions: both partners purified
T6 construct: YbbP, transmembrane component (10 transmembrane helices, two periplasmic domains) of the YbbAP Type VII ABC transporter, Escherichia coli; source: size exclusion chromatography for structure determination), in 0.01% LMNG
T6 sequence: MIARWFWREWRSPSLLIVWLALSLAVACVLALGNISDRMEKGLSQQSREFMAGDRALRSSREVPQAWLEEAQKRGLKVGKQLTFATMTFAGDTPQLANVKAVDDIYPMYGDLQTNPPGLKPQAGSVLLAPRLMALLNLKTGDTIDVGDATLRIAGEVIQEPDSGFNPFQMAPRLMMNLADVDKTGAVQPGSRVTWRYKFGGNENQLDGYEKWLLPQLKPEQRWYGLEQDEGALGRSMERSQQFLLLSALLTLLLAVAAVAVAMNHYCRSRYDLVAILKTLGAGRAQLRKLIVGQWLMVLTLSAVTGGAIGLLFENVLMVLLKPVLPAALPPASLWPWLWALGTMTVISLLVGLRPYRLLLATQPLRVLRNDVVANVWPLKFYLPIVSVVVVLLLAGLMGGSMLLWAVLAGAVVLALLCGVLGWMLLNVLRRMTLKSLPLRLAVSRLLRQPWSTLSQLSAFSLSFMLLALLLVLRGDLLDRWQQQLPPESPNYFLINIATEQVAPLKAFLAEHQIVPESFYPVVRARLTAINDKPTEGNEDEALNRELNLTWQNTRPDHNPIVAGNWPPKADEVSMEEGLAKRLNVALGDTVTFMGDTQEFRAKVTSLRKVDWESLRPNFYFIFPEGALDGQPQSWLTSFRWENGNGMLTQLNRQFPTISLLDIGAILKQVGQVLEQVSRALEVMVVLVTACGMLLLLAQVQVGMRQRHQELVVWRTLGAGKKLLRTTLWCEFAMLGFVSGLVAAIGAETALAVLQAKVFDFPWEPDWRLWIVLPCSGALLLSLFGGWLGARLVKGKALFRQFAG

T4 sequence (Q9HZY8 22-201): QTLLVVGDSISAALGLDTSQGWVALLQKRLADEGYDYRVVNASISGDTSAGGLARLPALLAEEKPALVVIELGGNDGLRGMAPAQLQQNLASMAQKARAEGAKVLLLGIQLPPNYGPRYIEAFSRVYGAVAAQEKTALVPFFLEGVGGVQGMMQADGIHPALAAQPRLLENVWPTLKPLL

CCCC(=O)Oc1ccc([N+](=O)[O-])cc1 [p-nitrophenyl butyrate]
relative rate (TesA [1]): expressing either TesA (or YbbAP-TesA) from a plasmid show robust hydrolytic activity

CC1(C)S[C@@H]2[C@H](NC(=O)[C@H](N)c3ccccc3)C(=O)N2[C@H]1C(=O)O [Ampicillin]
MIC [2]: 8 µg/mL (≈ 22.9 µM)

CC(=O)OCC1=C(C(=O)O)N2C(=O)[C@@H](NC(=O)Cc3cccs3)[C@H]2SC1 [Cephalothin]
MIC (Escherichia coli BW25113): 12 µg/mL (≈ 30.3 µM)

CC1(C)S[C@@H]2[C@H](NC(=O)Cc3ccccc3)C(=O)N2[C@H]1C(=O)O [Penicillin G]
MIC (Escherichia coli BW25113): 32 µg/mL (≈ 95.7 µM)

O=C(Cc1cccs1)N[C@@H]1C(=O)N2C(C(=O)O)=C(/C=C/c3ccc([N+](=O)[O-])cc3[N+](=O)[O-])CS[C@H]12 [nitrocefin]
absorbance assay (TesA [3]): YbbAP-TesA (and isolated TesA) can hydrolyze nitrocefin
absorbance at 488 nm (PaTesA): We also separately confirmed that the P. aeruginosa TesA can hydrolyze nitrocefin
Km (YbbAP-TesA): < 0.01 µM

B1: TesA Ser36Ala (enzyme, E. coli, UniProt P0ADA1 27-208, looked up)
chain: ADTLLILGDALSAGYRMSASAAWPALLNDKWQSKTSVVNASISGDTSQQGLARLPALLKQHQPRWVLVELGGNDGLRGFQPQQTEQTLRQILQDVKAANAEPLLMQIRLPANYGRRYNEAFSAIYPKLAKEFDVPLLPFFMEEVYLKPQWMQDDGIHPNRDAQPFIADWMAKQLQPLVNHDS
notes: TesA, periplasmic multifunctional esterase/thioesterase/lysophospholipase, Escherichia coli, with the catalytic site mutation Ser36Ala; printed residue numbers fit the precursor with its signal peptide; also called TesA catalytic site mutation (Ser36Ala); source: size exclusion chromatography for structure determination), in 0.01% LMNG
stoichiometry N (YbbP): 1

B2: YbbA (natural protein, E. coli)
chain: MPAENIVEVHHLKKSVGQGEHELSILTGVELVVKRGETIALVGESGSGKSTLLAILAGLDDGSSGEVSLVGQPLHNMDEEARAKLRAKHVGFVFQSFMLIPTLNALENVELPALLRGESSAESRNGAKALLEQLGLGKRLDHLPAQLSGGEQQRVALARAFNGRPDVLFADEPTGNLDRQTGDKIADLLFSLNREHGTTLIMVTHDLQLAARCDRCLRLVNGQLQEEA
notes: also called ABC domain; source: size exclusion chromatography for structure determination), in 0.01% LMNG
stoichiometry N (YbbP): 2
